Source: PubChem BioAssay (NCI)
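Where inhibition never reached the appropriate level, the endpoint shown equals the highest concentration tested. Otherwise, values were interpolated linearly from a five-concentration, 48-hour dose response in 96-well plates. Definition used: TGI = concentration required for complete inhibition of growth.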

Tests used:
Assay in all cases: inhibition of tumour cell growth, NCI panel, 48 h
[1] = system: 786-0 renal
[2] = system: A498 renal
[3] = system: A549 NSCLC
[4] = system: ACHN renal
[5] = system: BT-549 breast
[6] = system: CAKI-1 renal
[7] = system: COLO 205 colon
[8] = system: DU-145 prostate
[9] = system: EKVX NSCLC
[10] = system: HCC-2998 colon
[11] = system: HCT-116 colon
[12] = system: HCT-15 colon
[13] = system: HOP-62 NSCLC
[14] = system: HOP-92 NSCLC
[15] = system: HS 578T breast
[16] = system: HT29 colon
[17] = system: IGROV1 ovarian
[18] = system: K-562 leukemia
[19] = system: KM12 colon
[20] = system: LOX IMVI melanoma
[21] = system: M14 melanoma
[22] = system: MALME-3M melanoma
[23] = system: MCF7 breast
[24] = system: MDA-MB-231 breast
[25] = system: MDA-MB-435
[26] = system: MDA-N
[27] = system: MOLT-4 leukemia
[28] = system: NCI-H226 lung
[29] = system: NCI-H23 lung
[30] = system: NCI-H460 lung
[31] = system: NCI-H522 lung
[32] = system: NCI/ADR-RES ovarian
[33] = system: OVCAR-3 ovarian
[34] = system: OVCAR-4 ovarian
[35] = system: OVCAR-5 ovarian
[36] = system: OVCAR-8 ovarian
[37] = system: RXF 393 renal
[38] = system: SF-268 CNS
[39] = system: SF-295 CNS
[40] = system: SF-539 CNS
[41] = system: SK-MEL-2 melanoma
[42] = system: SK-MEL-28 melanoma
[43] = system: SK-MEL-5 melanoma
[44] = system: SK-OV-3 ovarian
[45] = system: SN12C renal
[46] = system: SNB-19 CNS
[47] = system: SNB-75 CNS
[48] = system: SR leukemia
[49] = system: SW-620 colon
[50] = system: T-47D breast
[51] = system: TK-10 renal
[52] = system: U251 CNS
[53] = system: UACC-257 melanoma
[54] = system: UACC-62 melanoma
[55] = system: UO-31 renal
[56] = system: CCRF-CEM leukemia
[57] = system: HL-60(TB) leukemia
[58] = system: PC-3 prostate
[59] = system: RPMI-8226 leukemia

Measured: TGI

COc1cc(-c2nc3nc(N4CCN(C)CC4)ccc3[nH]2)c(OC)c2[nH]c(CO)nc12
99.1 µM: [41]
not listed: [56] | [57] | [58] | [59]
> 100 µM: all other assays above

CCC1(CC)C(=O)N(C(=O)c2ccc(C)cc2)N(C(=O)c2ccc(C)cc2)C1=O
62.7 µM: [22]
51.6 µM: [31]
68.8 µM: [48]
58.5 µM: [27]
46.4 µM: [33]
not listed: [2] | [14] | [40]
> 75 µM: all other assays above
